The nature of data set [1]: Toxicity in Crl:CD Sprague-Dawley rat assessed as chloride level in blood at 100 mg/kg, po administered daily for 14 days (reference value: 104 +/-1.5 mEq/L). The class given is organism-based. The conditions noted are these: in vivo, 336 h, time 14 day.
Data set [2] can be described thus: Toxicity in Crl:CD Sprague-Dawley rat assessed as aspartate aminotransferase level in blood at 100 mg/kg, po administered daily for 14 days (reference value: 72+/-5.03 U/L). The class given is organism-based. The conditions noted are these: in vivo, 336 h, time 14 day.
Data set [3] in a line: Toxicity in Crl:CD Sprague-Dawley rat assessed as hemoglobin level in blood at 100 mg/kg, po administered daily for 14 days (reference value: 13.5 +/-0.386 g/dL). The conditions noted are these: in vivo, 336 h, time 14 day. The class given is organism-based.
A short description of data set [4]: Toxicity in Crl:CD Sprague-Dawley rat assessed as basophil count in blood at 100 mg/kg, po administered daily for 14 days (reference value: 0.023+/-0.018 10^3/uL). The class given is organism-based. The conditions noted are these: in vivo, 336 h, time 14 day.
Data set [5] in a line: Toxicity in Crl:CD Sprague-Dawley rat assessed as atrophy of hepatocytes in liver at 100 mg/kg, po administered daily for 14 days by hematoxylin and eosin staining based analysis. The class given is organism-based. The conditions noted are these: in vivo, 336 h, time 14 day.
The nature of data set [6]: Toxicity in Crl:CD Sprague-Dawley rat assessed as reticulocyte percentile in blood at 100 mg/kg, po administered daily for 14 days (reference value: 4.68+/-0.802%). Format: organism-based. The conditions noted are these: in vivo, 336 h, time 14 day.
Data set [7] in a line: Toxicity in Crl:CD Sprague-Dawley rat assessed as platelet count in blood at 100 mg/kg, po administered daily for 14 days (reference value: 1160+/-65.1 10^3/uL). The class given is organism-based. The conditions noted are these: in vivo, 336 h, time 14 day.
A further data set concerns HCC70. The data set can be described thus: Antitumor activity against human HCC70 cells assessed as cell growth inhibition treated for 10 to 15 days. Format: functional. The conditions noted are these: time 10-15 day.
Another data set has as its system SK-N-MC. The data set can be described thus: Antitumor activity against human SK-N-MC cells assessed as cell growth inhibition treated for 10 to 15 days. The class given is functional. The conditions noted are these: time 10-15 day.
Data set [8] deals with DNA (cytosine-5)-methyltransferase 3B (Homo sapiens, UniProt Q9UBC3). The data set can be described thus: Inhibition of human DNMT3b using lambda DNA and [3H]SAM as substrate incubated for 30 mins to 1 hr by HotSpot kinase assay.
In the next data set the test system is RKO. Briefly: Antitumor activity against human RKO cells assessed as cell growth inhibition treated for 10 to 15 days. The conditions noted are these: time 10-15 day. Format: functional.
A further data set relates to A204. The data set can be described thus: Antitumor activity against human A204 cells assessed as cell growth inhibition treated for 10 to 15 days. The class given is functional. The conditions noted are these: time 10-15 day.
Data set [9] deals with Tyrosine-protein kinase SYK (Homo sapiens) (UniProt P43405). Briefly: Inhibition of N-terminal GST-tagged full length human SYK (1 to 635 residues) expressed in baculovirus-infected Sf21 cells using Blk/Lyntide as substrate at 1 uM in presence of ATP by Mobility shift assay.
Data set [10] is described as follows: Antitumor activity against human RDES cells assessed as cell growth inhibition treated for 10 to 15 days. Format: functional. The conditions noted are these: RD-ES, time 10-15 day.
In another data set the test system is BT-549. Briefly: Antitumor activity against human BT-549 cells assessed as cell growth inhibition treated for 10 to 15 days. Format: functional. The conditions noted are these: time 10-15 day.
The test system of a further data set is LS180. Briefly: Antitumor activity against human LS180 cells assessed as cell growth inhibition treated for 10 to 15 days. The class given is functional. The conditions noted are these: time 10-15 day.
The subject of another data set is CCRF-CEM. The data set can be described thus: Antitumor activity against human CCRF-CEM cells assessed as cell growth inhibition treated for 10 to 15 days. The class given is functional. The conditions noted are these: time 10-15 day.
The next data set relates to Rec1. Briefly: Antitumor activity against human REC1 cells assessed as cell growth inhibition treated for 10 to 15 days. Format: functional. The conditions noted are these: time 10-15 day.
For a further data set, the system named is MDA-MB-468. Briefly: Antitumor activity against human MDA-MB-468 cells assessed as cell growth inhibition treated for 10 to 15 days. The class given is functional. The conditions noted are these: time 10-15 day.
For a further data set, the system named is HCC1187. The data set can be described thus: Antitumor activity against human HCC1187 cells assessed as cell growth inhibition treated for 10 to 15 days. The conditions noted are these: time 10-15 day. The class given is functional.
Another data set has as its system Raji. The data set can be described thus: Antitumor activity against human Raji cells assessed as cell growth inhibition treated for 10 to 15 days. The class given is functional. The conditions noted are these: time 10-15 day.
Another data set deals with EB2. The data set can be described thus: Antitumor activity against human EB2 cells assessed as cell growth inhibition treated for 10 to 15 days. The conditions noted are these: time 10-15 day. Format: functional.
A further data set relates to NALM-6. Briefly: Antitumor activity against human NALM-6 cells assessed as cell growth inhibition treated for 10 to 15 days. The class given is functional. The conditions noted are these: time 10-15 day.
The next data set concerns SBC-5. Briefly: Antitumor activity against human SBC-5 cells assessed as cell growth inhibition treated for 10 to 15 days. The conditions noted are these: time 10-15 day. Format: functional.
The subject of the next data set is MKN-1. Briefly: Antitumor activity against human MKN-1 cells assessed as cell growth inhibition treated for 10 to 15 days. The class given is functional. The conditions noted are these: time 10-15 day.
The subject of another data set is UACC-812. Briefly: Antitumor activity against human UACC-812 cells assessed as cell growth inhibition treated for 10 to 15 days. The class given is functional. The conditions noted are these: time 10-15 day.
Data set [11] is described as follows: Antitumor activity against human COV362 cells assessed as cell growth inhibition treated for 10 to 15 days. The class given is functional. The conditions noted are these: time 10-15 day.

What is called GI50 is the concentration giving 50% growth inhibition. Usually IC50 stands for the concentration that inhibits the measured activity by half. As a reminder, the inhibition is the change of the read-out against control, counted positive when it falls.

Structures are written as SMILES.

In the case of `Cc1cc(C)c(CNC(=O)c2cc(Br)c3c(c2C)O[C@@](C)([C@H]2CC[C@H](N(C)C)CC2)O3)c(=O)[nH]1`, the Activity was 105 mEq/L in [1]; 71.8 U/L in [2]; 13 g/dL in data set [3]; 0.01 10^3 /uL in data set [4]; “Toxic” in data set [5]; 4.48% in data set [6]. For the same compound, the Activity in [7] was 1120 10^3 /uL.

On to `Cc1cc(C)c(CNC(=O)c2cc(Cl)c3c(c2C)O[C@@](C)([C@H]2CC[C@H](N(C)C)CC2)O3)c(=O)[nH]1` [VALEMETOSTAT], for which the GI50 in the data set with HCC70 is above 1000 nM; with SK-N-MC, above 1000 nM; in the data set with RKO it was above 1000 nM; with A204, 29.2 nM; in [10] it was above 1000 nM; in the data set on BT-549 it was above 1000 nM. The GI50 in the data set on LS180 was 95.5 nM; in the data set on CCRF-CEM, above 1000 nM; in the data set with Rec1 it was 480 nM; with MDA-MB-468 it was above 1000 nM; with HCC1187 it was above 1000 nM; in the data set with Raji, 11.2 nM. The GI50 is above 1000 nM with EB2; above 1000 nM in the data set with NALM-6; 22 nM in the data set with SBC-5; above 1000 nM in the data set on MKN-1; above 1000 nM in the data set with UACC-812; above 1000 nM in [11]. In data set [8], this compound displayed an IC50 of 100000 nM. Also, in data set [9], the inhibition is -8.4%.

Values taken from ChEMBL document CHEMBL5647694, “Novel orally bioavailable EZH1/2 dual inhibitors with greater antitumor efficacy than an EZH2 selective inhibitor” (Cancer Sci, 2017).
